# In PubChem BioAssay AID1645865 (Buhrlage Lab, Dana-Farber Cancer Institute and Novartis …, 2021):
# Calls of active or inactive are those of the source.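 The calls were made as follows: active = maximal inhibition of the USP30 enzyme reaching 30% or more across the dose series; inactive = the rest.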
# Molecular target: Ubiquitin carboxyl-terminal hydrolase 30 (Homo sapiens) (UniProt Q70CQ3)
# Assay: ubiquitin-specific protease 30 DUB inhibitors, concentration-effect, biochemical, validation of primary actives (AID 1645865)
# Settings: purified USP30, Ub-rhodamine cleavage, fluorescence, 2 h
# Sequence of Ubiquitin carboxyl-terminal hydrolase 30 (Homo sapiens) (Q70CQ3 whole entry, looked up): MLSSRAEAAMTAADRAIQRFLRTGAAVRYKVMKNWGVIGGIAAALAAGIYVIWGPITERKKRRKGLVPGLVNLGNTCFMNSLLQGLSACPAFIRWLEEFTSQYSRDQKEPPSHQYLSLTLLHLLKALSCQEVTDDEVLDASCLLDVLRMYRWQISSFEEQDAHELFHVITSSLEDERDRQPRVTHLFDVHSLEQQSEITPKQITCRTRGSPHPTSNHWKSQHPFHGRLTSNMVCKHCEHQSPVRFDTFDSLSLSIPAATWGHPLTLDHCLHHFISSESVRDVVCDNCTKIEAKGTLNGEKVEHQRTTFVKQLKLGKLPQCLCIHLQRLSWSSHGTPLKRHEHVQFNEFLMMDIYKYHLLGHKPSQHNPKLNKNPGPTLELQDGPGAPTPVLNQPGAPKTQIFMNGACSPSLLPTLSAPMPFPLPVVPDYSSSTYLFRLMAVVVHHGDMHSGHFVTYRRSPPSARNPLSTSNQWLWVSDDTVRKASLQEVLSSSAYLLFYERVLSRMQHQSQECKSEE
row,Structure (SMILES),IC50
1,O=C1CC(O)C(C2=CC(=O)c3c(O)cccc3C2=O)O1 (configuration not stated),4.46 µM
2,O=S1(=O)CCN(Cc2ccccc2)c2c(F)nc(N3CCCCC3)c(F)c21,> 50 µM (inactive)
3,O=C(COc1ccc(S(=O)(=O)N2CCOCC2)cc1)N1CCC(Cc2ccccc2)CC1,49.5 µM
4,CCCOc1ccc(C(=O)Nc2ccc(S(=O)(=O)Nc3cc(C)nc(C)n3)cc2)cc1,> 50 µM (inactive)
5,Cc1ccc(C)c(S(=O)(=O)N2CCN(c3ccc4nnc(-c5ccco5)n4n3)CC2)c1,> 50 µM (inactive)
6,COc1ccc(CCNC(=O)CCn2c(=O)c3ccccc3n(Cc3ccc(C)cc3)c2=O)cc1OC,25.4 µM
7,CCNc1oc(-c2ccc(S(=O)(=O)N3CCCCC3)cc2)nc1C#N,21.9 µM
8,COc1cccc(NC(=O)c2cnc3c(c2)c(=O)n(C)c(=O)n3C)c1,2.05 µM
9,COc1ccc(C2CC(c3ccccc3)N(C(=O)C3CC3)c3ncnn32)cc1 (configuration not stated),> 50 µM (inactive)
10,COc1ccc(-n2ccn3c(CCC(=O)NCc4ccc(F)cc4)nnc3c2=O)cc1,25.9 µM
11,COc1ccc(-c2ocnc2C(=O)Nc2cccc(Cl)c2C)cc1OC,45.8 µM
12,O=C(Nc1cc(F)c2nc(N3CCCC3)ccc2c1)c1ccco1,> 50 µM (inactive)
13,COc1ccc(CNC(=O)Nc2cccc3ccccc23)cc1,3.81 µM
14,CCCn1c(=O)c(-c2ccc(C(=O)NCc3ccc(OC)cc3)cc2)nc2cccnc21,1.84 µM
15,COc1ccc(C(=O)Nc2cc(F)c3nc(N4CCOCC4)ccc3c2)c(OC)c1,> 50 µM (inactive)
16,CN1CCN(C(=O)c2ccn(-c3ccc4ccc(-c5cnn(C)c5)cn34)n2)CC1,> 50 µM (inactive)
17,O=C1CN(C(=O)COC(=O)CCCN2C(=O)c3cccc4cccc(c34)C2=O)c2ccccc2N1,> 50 µM (inactive)
18,CCn1c(Cn2cccn2)nc2cc(NC(=O)c3ccc(F)cc3)ccc21,> 50 µM (inactive)
19,COc1cc(Cl)ccc1Nc1ncc(C(=O)Nc2cc(OC)c(OC)c(OC)c2)c2ccccc12,< 0.05 µM
20,COc1cc2c(=O)n(CCC(=O)NCc3ccco3)c(=O)n(CC(=O)Nc3c(C)cccc3C)c2cc1OC,> 50 µM (inactive)
21,O=c1oc2ccccc2c2nn(-c3ccccn3)cc12,16.7 µM
22,COc1ccc(CCNC(=O)c2cc3ccccc3s2)cc1OC,> 50 µM (inactive)
23,Cc1cccc(C(=O)N2CCc3cc(-c4nc(NC(=O)CN5CCc6ccccc6C5)sc4C)ccc32)c1,> 50 µM (inactive)
24,COc1ccc(C(=O)CCN2CCOCC2)cc1[N+](=O)[O-],> 50 µM (inactive)
25,Cc1nc(-c2ccc(-n3cc(C(=O)Nc4cccc(F)c4)c(C)n3)cc2)no1,47.7 µM

row,Structure (SMILES),IC50
1,c1cnc(-c2n[nH]c(C3CCN(C4CCNC4)CC3)n2)cn1 (configuration not stated),> 50 µM (inactive)
2,COc1ccc(-c2nc(Cn3nnc(C(=O)Nc4ccc(C)cc4C)c3N)c(C)o2)cc1,> 5 µM (inactive)
3,O=C(COc1ccc(Cl)cc1Cl)Nc1ccccc1-c1nc2ccccc2[nH]1,1.61 µM
4,COc1cnc(-c2ccccn2)nc1Sc1ccccc1Cl,2.89 µM
5,Cc1ccccc1-c1nc(CN(C)S(=O)(=O)c2ccccc2)c(C)o1,35.8 µM
6,CC1CCN(c2cc(-n3cnc(C(=O)N4CCCCC4)c3)ncn2)CC1,> 50 µM (inactive)
7,CN1CCN(c2ccc3nc(-c4ccccc4)c(-c4ccccc4)nc3c2)CC1,> 50 µM (inactive)
8,CC(C)CC[C@H]1O[C@@H](CC(=O)O)Cc2cc3c(c(O)c21)C(=O)c1sc(=O)n(C)c1C3=O,> 50 µM (inactive)
9,Fc1cccc(-n2cc(-c3noc(-c4ccc[nH]4)n3)nn2)c1,> 50 µM (inactive)
10,Cc1cc(=O)c2c(O)oc(O)c3c(O)cc(=O)c1c32,> 50 µM (inactive)
11,CSc1nccc(-c2ccc(F)cc2)c1C#N,36.3 µM
12,CC1(C)Cc2c(c(-c3ccco3)nc3sc4c(SCCCc5ccccc5)ncnc4c23)CO1,> 50 µM (inactive)
13,CCn1c(=N)n(CCOc2ccc(F)cc2)c2ccccc21,31.8 µM
14,Cc1cc(CSc2ncccc2C(=O)Nc2ccnn2Cc2cccnc2)no1,> 50 µM (inactive)
15,COc1ccc(Cl)cc1NC(=O)Cn1c(=O)cc(C)c2c(C)nn(-c3ccccc3)c21,1.99 µM
16,Cc1cc(O)c(=O)cc2c1C[C@H]1CC(C)(C)/C=C/C[C@@]3(C)Oc4cc(=O)c(O)cc(C)c4C[C@@H]3C[C@H](O)[C@]1(C)O2,> 50 µM (inactive)
17,Cc1ccc(C2c3c(-c4ccccc4O)n[nH]c3C(=O)N2Cc2ccco2)cc1 (configuration not stated),21.3 µM
18,CCOc1cc(C2C3=C(CC(C)(C)CC3=O)Nc3onc(C)c32)ccc1O (configuration not stated),37.3 µM
19,CCn1c(CNc2ccc(Cl)cc2)nnc1SCC(=O)Nc1ccccc1,> 50 µM (inactive)
20,Cc1ccc(C(=O)NCCc2nc(-c3ccc4c(c3)OCO4)n[nH]2)cc1F,41.6 µM
21,Fc1ccc(-c2noc(-c3nnc(NCc4cccnc4)c4ccccc34)n2)cc1,1.92 µM
22,Cc1cccc(C(=O)Nc2ccc3c(c2)nc(CSc2nccc(C)n2)n3C)c1,> 50 µM (inactive)
23,CC(=O)O[C@H]1[C@]2(O)C[C@]34SS[C@](CO)(C(=O)N3[C@@H]2C[C@@]12O[C@@H](C)C(C)(C)C2=O)N(C)C4=O,2.25 µM
24,CCOc1cc(N2CCOCC2)c(OCC)cc1NC(=O)c1cc(-c2ccncc2)nc2ccccc12,3.68 µM
25,O=C(Nc1nc2c(ccc3ccccc32)s1)c1cccc(Br)c1,2.44 µM

row,Structure (SMILES),IC50
1,Cc1ccc(C(=O)Nc2cc3c4c(c2)CC(=O)N4CCC3)cc1,> 50 µM (inactive)
2,COc1ccc(Cl)cc1NC(=O)c1cc(-c2ccccn2)n[nH]1,0.164 µM
3,Cc1cnc(CN2CCCC(c3ccc4cn[nH]c4n3)C2)cn1 (configuration not stated),> 50 µM (inactive)
4,Cc1cc(C)c2sc(N(CCCn3ccnc3)C(=O)Cc3ccccc3)nc2c1,17.5 µM
5,O=c1c(-c2nc(C3CC3)no2)cccn1Cc1c(F)cccc1Cl,> 50 µM (inactive)
6,Cc1cccc(N2C(=O)/C(=C\c3ccc4c(c3)OCCO4)c3ccccc3C2=O)c1,> 50 µM (inactive)
7,CC(C)N1CC[C@@H]2[C@H](C1)CN2C(=O)Nc1cccc(F)c1,> 50 µM (inactive)
8,CCCc1c(C(=O)O)c(O[C@H]2O[C@H](C)[C@@H](OC)[C@H](OC)[C@@H]2OC)cc2cc3c(c(O)c12)C(=O)c1c(O)cc(O[C@@H]2O[C@@H](C)[C@H](O[C@H]4O[C@H](C)[C@@H](OC)[C@H](OC)[C@@H]4O)[C@@H](OC)[C@H]2O)cc1C3=O,> 50 µM (inactive)
9,Cc1ccc(C(=O)c2cn(CC(=O)Nc3ccccc3)c3ccc(C)cc3c2=O)cc1,4.45 µM
10,COc1ccc(NC(=O)c2nnn(-c3ccccc3C)c2C)cc1OC,> 50 µM (inactive)
11,Cc1ccc2[nH]c(=O)c(CN(CC3COCCO3)S(=O)(=O)c3ccc(F)cc3)cc2c1 (configuration not stated),8.96 µM
12,Cn1c(CN2CCCCCC2)nc2cc(NC(=O)c3ccccc3)ccc21,> 50 µM (inactive)
13,O=C(Nc1ccc(Br)cn1)c1nc2ccccc2nc1N1CCCCC1,> 50 µM (inactive)
14,COc1cc(OC)cc(C(=O)Nc2cnc(-c3ccccc3)nc2)c1,> 50 µM (inactive)
15,Cc1c(C)n(-c2ccccc2)c2ncn(CC(=O)N(C)Cc3ccccc3)c(=O)c12,> 50 µM (inactive)
16,O=C(Nc1cccc(OC(=O)c2ccc(Cl)cc2)c1)c1ccc(Cl)cc1,16 µM
17,COc1cnc(-c2ccccn2)nc1Sc1ccc(C)cc1,25.7 µM
18,CCc1nc(N2CCCC2=O)sc1C(=O)Nc1cccc(C(C)=O)c1,> 50 µM (inactive)
19,Cn1c(CCN2CCCC2)nc2cc(NC(=O)c3ccccc3)ccc21,> 50 µM (inactive)
20,O=C(Cn1c(=O)n(Cc2ccccc2)c(=O)c2ncccc21)NCc1ccccc1Cl,> 50 µM (inactive)
21,COc1ccc(C2CC(=O)Nc3ccc4ccccc4c32)c(OC)c1OC (configuration not stated),22.3 µM
22,CN(C)S(=O)(=O)N1CCCC2(C1)Nc1cccnc1NC2=NC1CCCC1 (configuration not stated),> 50 µM (inactive)
23,O=C(Nc1cccc2ccccc12)C1CCCN(S(=O)(=O)Cc2ccccc2)C1 (configuration not stated),4.36 µM
24,COc1ccc(-c2cc3nc([C@@H](C)NC(=O)c4ccc5c(c4)OCO5)nn3cn2)cc1,> 50 µM (inactive)
25,COc1ccc(NS(=O)(=O)c2cc(NC(=O)CCc3nc4ccccc4s3)ccc2C)cc1,26.2 µM

row,Structure (SMILES),IC50
1,O=C(Nc1ccc2c(c1)OCCO2)C1CCN(C(=O)c2cc(-c3cccnc3)n[nH]2)CC1,> 50 µM (inactive)
2,COc1ccc(Cl)c(NC(=O)C2CC(=O)Nc3cc(-c4ccccc4)nn32)c1 (configuration not stated),13.2 µM
3,CCN1CCN(C(=O)CCCN(c2ccccc2)S(C)(=O)=O)CC1,> 50 µM (inactive)
4,COc1cccc(NC(=O)Cc2sc(Nc3cc(C)cc(C)c3)nc2O)c1,23 µM
5,COCC(C)Nc1ncc(-c2cnccn2)c(-c2ccc(C)s2)n1 (configuration not stated),> 50 µM (inactive)
6,COCC(=O)Nc1cc(F)c2nc(N3CCOCC3)ccc2c1,> 50 µM (inactive)
7,O=C(COc1ccc(Cl)cc1)N1CCc2cc3ccccc3nc21,1.91 µM
8,Cc1noc(-c2cc(=O)n(CC(=O)NCc3ccccc3)c3ccccc23)n1,> 50 µM (inactive)
9,COc1ccc(-c2cc3c(=O)n(CC(=O)Nc4ccccc4F)ccn3n2)cc1OC,11.8 µM
10,CC(=O)c1ccc(NC(=O)CC2C(=O)Nc3nc4ccccc4n32)cc1 (configuration not stated),46.2 µM
11,O=[N+]([O-])c1ccc(NCC2COc3ccccc3O2)c(Cl)c1 (configuration not stated),> 50 µM (inactive)
12,O=C(Cc1ccccc1F)N1CCC2(CC1)CC1(CO2)Nc2ccccc2-n2cccc21 (configuration not stated),> 50 µM (inactive)
13,CNc1nc2c(c(=O)n1C)CN(C(=O)Nc1cccc3ccccc13)CC2,> 50 µM (inactive)
14,COc1ccc(Nc2nc(C(=O)NCc3ccccc3)cc3occc23)cc1,> 50 µM (inactive)
15,CCn1cc2c(n1)c(=O)n(Cc1ccc(C)cc1)c(=O)n2CC(=O)Nc1ccc(F)cc1,3.47 µM
16,CSc1nc(Cc2ccc(Cl)cc2)nc2ccccc12,> 50 µM (inactive)
17,COc1ccc(CNC(=O)CCc2nnc3n(Cc4ccccc4Cl)c(=O)c4ccccc4n23)cc1,2.65 µM
18,CCCCN(C)C(=O)c1cc2c(=O)n3cccc(C)c3nc2n1Cc1ccccc1,36.8 µM
19,O=C(Nc1ccc2c(c1)OCO2)C1CCN(Cc2nc3ccccc3s2)CC1,> 50 µM (inactive)
20,Cc1ccc(-n2c(=O)[nH]c3c(C(N)=O)nc(-c4cccnc4)nc32)cc1,3.37 µM
21,CCN(CC(=O)Nc1cc(C)on1)c1cccc2ccccc12,> 50 µM (inactive)
22,CCOc1ccc(Nc2cc(C(=O)NCCc3ccccc3)c3ccccc3n2)cc1,13.6 µM
